Data as given in patent US8513423B2 (Janssen Pharmaceutica, NV, priority 2010, dated 2013).
Numbering of substitutions follows the chain as printed. Read-outs that look alike come from different tables or passages of the source.

How the values were obtained:
[1] = target: T1, purified mutant MGL (mut-MGLL 11-313 L179S L186S) (Homo sapiens, UniProt Q99685, L169S/L176S); assay: MGL enzyme activity assay (4MU-B cleavage), mutant MGL; type: biochemical; conditions: 10 μM 4MU-B, 5 nM enzyme, 37° C., read-out: MGL mutant inh IC50
T1 construct: purified mutant MGL (mut-MGLL 11-313 L179S L186S)
T1 sequence (Q99685 1-303 L169S/L176S): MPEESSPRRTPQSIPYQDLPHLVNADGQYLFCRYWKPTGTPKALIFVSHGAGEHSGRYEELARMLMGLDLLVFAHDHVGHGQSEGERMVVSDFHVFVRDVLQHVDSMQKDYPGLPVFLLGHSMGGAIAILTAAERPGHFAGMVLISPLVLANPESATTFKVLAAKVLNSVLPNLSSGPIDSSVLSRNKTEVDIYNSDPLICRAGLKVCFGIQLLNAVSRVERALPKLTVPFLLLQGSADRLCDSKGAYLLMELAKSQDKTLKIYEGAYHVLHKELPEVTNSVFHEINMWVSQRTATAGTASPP
Description: All rate-based assays were performed in black 384-well polypropylene PCR microplates (Abgene) in a total volume of 30 μL. Substrate 4-methylumbelliferyl butyrate (4MU-B; Sigma) and either purified mutant MGL (mut-MGLL 11-313 L179S L186S) or purified wild type MGL (wt-MGLL 6H-11-313) were diluted separately into 20 mM PIPES buffer (pH=7.0), containing 150 mM NaCl and 0.001% Tween 20. Compounds of Formula (I) were pre-dispensed (50 nL) into the assay plate using a Cartesian Hummingbird prior to adding 4MU-B (25 μL of 1.2× solution to a final concentration of 10 μM) followed by enzyme (5 μL of a 6× solution to a final concentration of 5 nM) to initiate the reaction. Final compound concentrations ranged from 17 to 0.0003 μM. The fluorescence change due to 4MU-B cleavage was monitored with excitation and emission wavelengths of 335 and 440 nm, respectively, and a bandwidth of 10 nm (Safire^2, Tecan) at 37° C. for 5 min.
The IC50 values for compounds of Formula (I) were determined using Excel from a fit of the equation to the concentration-response plot of the fractional activity as a function of inhibitor concentration.

[2] = target: T2, purified wild type MGL (wt-MGLL 6H-11-313) (Homo sapiens, UniProt Q99685); assay: MGL enzyme activity assay (4MU-B cleavage), wild type MGL; type: biochemical; conditions: 10 μM 4MU-B, 5 nM enzyme, 37° C., read-out: MGL wild type inh IC50
T2 construct: purified wild type MGL (wt-MGLL 6H-11-313)
T2 sequence (Q99685 1-303): T1 sequence (Q99685 1-303 L169S/L176S) with S169L, S176L
Procedure, shortened: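 Enzyme (5 nM final) cleaved 4MU-B (10 μM final) in 20 mM PIPES pH 7.0 with 150 mM NaCl and 0.001% Tween 20. Compounds were tested at 17 to 0.0003 μM final. Fluorescence (ex 335/em 440 nm) was monitored at 37° C for 5 min, and IC50 was fitted from fractional activity versus inhibitor concentration.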

MGL = target: T3, MGL (Rattus norvegicus, UniProt Q8R431); assay: 2-AG accumulation assay in rat brain homogenate; type: biochemical; conditions: compound @1 μM, read-out: Rat Brain 2AG % VehCntrl (%) @1 μM
T3 construct: one g rat brain was homogenized; from tissue; host or cells: rat brain homogenate
T3 sequence (Q8R431 1-303): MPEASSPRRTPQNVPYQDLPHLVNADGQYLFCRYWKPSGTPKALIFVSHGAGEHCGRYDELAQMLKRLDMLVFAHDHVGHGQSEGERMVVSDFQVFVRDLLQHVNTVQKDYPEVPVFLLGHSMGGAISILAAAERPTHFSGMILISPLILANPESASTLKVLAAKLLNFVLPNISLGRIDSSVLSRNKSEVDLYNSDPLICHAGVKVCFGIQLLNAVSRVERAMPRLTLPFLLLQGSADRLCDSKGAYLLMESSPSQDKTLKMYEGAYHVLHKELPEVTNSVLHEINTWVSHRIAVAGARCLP
Procedure, shortened: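 Rat brain homogenate was incubated with compound for 15 min at 37° C., after which CaCl2 was added to a final concentration of 10 mM. Incubation then continued for another 15 min at 37° C. in 5 mL total volume. Reactions were stopped by adding 6 mL of 2:1 chloroform/methanol. 2-AG in the organic phase was quantified by HPLC/MS.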

mutant MGL = target: T4, mutant MGL (Homo sapiens, UniProt Q99685, L169S/L176S); assay: MGL ThermoFluor assay - mutant; type: binding
T4 construct: purified mutant MGL (mut-MGLL 11-313 L179S L186S)
T4 sequence (Q99685 1-303 L169S/L176S): T1 sequence (Q99685 1-303 L169S/L176S)
Procedure, shortened: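 Thermal shift binding with 0.07 mg/ml L169S/L176S MGL, 100 μM 1,8-ANS, 200 mM NaCl, 0.001% Tween-20, 50 mM PIPES pH 7.0. Heated 40–90 °C at 1 °C/min, fluorescence (em 500 nm) tracked to give Tm; Kd fitted from 11-point concentration–Tm response, qKd when stocks quantified by qNMR.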

[3] = 0.07 mg/ml mutant MGL, pH=7.0, read-out: MGL mutant ThermoFluor Kd
[4] = compound concentration measured by qNMR, read-out: MGL mutant ThermoFluor qKd (using qNMR conc.)

| Structure (SMILES) | IC50 [1] | IC50 [2] | 2-AG accumulation, percent of vehicle control at 1 µM (MGL) | Kd (mutant MGL; [3]) | Kd (mutant MGL; [4]) |
| --- | --- | --- | --- | --- | --- |
| O=C(c1ccc(-c2ccccc2)cc1)N1CC(C2CCN(C(=O)c3nccs3)CC2)C1 [Cpd 2, 4-[1-(Biphenyl-4-ylcarbonyl)azetidin-3-yl]-1-(1,3-thiazol-2-ylcarbonyl)piperidine] | < 5 nM | < 5 nM | 329% | 8.9 nM | – |
| O=C(c1ccc(-c2ccccc2)cc1)N1CC(C2CCN(C(=O)c3cscn3)CC2)C1 [Cpd 1, 4-[1-(Biphenyl-4-ylcarbonyl)azetidin-3-yl]-1-(1,3-thiazol-4-ylcarbonyl)piperidine] | 79 nM | 258 nM | 109% | 100 nM | – |
| Cc1c(C(=O)N2CC(C3CCN(C(=O)c4ccc[nH]4)CC3)C2)sc2cc(C(F)(F)F)ccc12 [Cpd 26, 4-(1-{[3-Methyl-6-(trifluoromethyl)-1-benzothiophen-2-yl]carbonyl}azetidin-3-yl)-1-(1H-pyrrol-2-ylcarbonyl)piperidine] | – | < 5 nM | 303% | 3.6 nM | – |
| O=C(c1ccc(Cc2cccc(C(F)(F)F)c2)cc1)N1CC(C2CCN(C(=O)c3nccs3)CC2)C1 [Cpd 19, 1-(1,3-Thiazol-2-ylcarbonyl)-4-[1-({4-[3-(trifluoromethyl)benzyl]phenyl}carbonyl)azetidin-3-yl]piperidine] | – | < 5 nM | 559% | 9 nM | – |
| O=C(c1nccs1)N1CCC(C2CN(C(=O)c3ccc(-c4ccccc4)cc3F)C2)CC1 [Cpd 15, 4-{1-[(3-Fluorobiphenyl-4-yl)carbonyl]azetidin-3-yl}-1-(1,3-thiazol-2-ylcarbonyl)piperidine] | – | 7 nM | 281% | 9 nM | – |
| O=C(c1ccc2c(ccn2-c2ccc(C(F)(F)F)cc2)c1)N1CC(C2CCN(C(=O)c3nccs3)CC2)C1 [Cpd 31, 5-({3-[1-(1,3-Thiazol-2-ylcarbonyl)piperidin-4-yl]azetidin-1-yl}carbonyl)-1-[4-(trifluoromethyl)phenyl]-1H-indole] | – | < 5 nM | 779% | 2.6 nM | – |
| O=C(c1ccc(Cc2cccc(C(F)(F)F)c2)cc1)N1CC(C2CCN(C(=O)c3cscn3)CC2)C1 [Cpd 13, 1-(1,3-Thiazol-4-ylcarbonyl)-4-[1-({4-[3-(trifluoromethyl)benzyl]phenyl}carbonyl)azetidin-3-yl]piperidine] | – | < 5 nM | 335% | 28 nM | – |

Results, then the compound that gave them:

| IC50 [1] | IC50 [2] | 2-AG accumulation, percent of vehicle control at 1 µM (MGL) | Kd (mutant MGL; [3]) | Kd (mutant MGL; [4]) | Structure (SMILES) |
| --- | --- | --- | --- | --- | --- |
| – | < 5 nM | 561% | – | 1 nM | O=C(c1ccc(-c2cccc(C(F)(F)F)c2)cc1)N1CCC(C2CN(C(=O)c3ccc[nH]3)C2)CC1 [Cpd 50, 4-[1-(1H-Pyrrol-2-ylcarbonyl)azetidin-3-yl]-1-{[3′-(trifluoromethyl)biphenyl-4-yl]carbonyl}piperidine] |
| – | < 5 nM | 266% | – | 18 nM | O=C(c1cccc(-c2cccc(F)c2)c1)N1CCC(C2CN(C(=O)c3nccs3)C2)CC1 [Cpd 51, 1-[(3′-Fluorobiphenyl-3-yl)carbonyl]-4-[1-(1,3-thiazol-2-ylcarbonyl)azetidin-3-yl]piperidine] |
| – | 66.5 nM | 590% | – | 6.6 nM | O=C(c1ccc2nc(-c3ccccc3)oc2c1)N1CCC(C2CN(C(=O)c3cscn3)C2)CC1 [Cpd 67, 2-Phenyl-6-({4-[1-(1,3-thiazol-4-ylcarbonyl)azetidin-3-yl]piperidin-1-yl}carbonyl)-1,3-benzoxazole] |
| – | 71.5 nM | 193% | 30.4 nM | 32.2 nM | O=C(c1cccc(-c2cccc(F)c2)c1)N1CCC(C2CN(C(=O)c3cscn3)C2)CC1 [Cpd 52, 1-[(3′-Fluorobiphenyl-3-yl)carbonyl]-4-[1-(1,3-thiazol-4-ylcarbonyl)azetidin-3-yl]piperidine] |
| – | 6 nM | 908% | – | 1 nM | O=C(c1ccc(-c2cccc(C(F)(F)F)c2)cc1)N1CCC(C2CN(C(=O)c3cscn3)C2)CC1 [Cpd 49, 4-[1-(1,3-Thiazol-4-ylcarbonyl)azetidin-3-yl]-1-{[3′-(trifluoromethyl)biphenyl-4-yl]carbonyl}piperidine] |
